Results published in PubChem BioAssay (NCI).
Where “and” joins values, the source holds several entries; their conditions need not be identical. Equal values may be shown once.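 Following 48 hours of exposure in 96-well plates, responses at five concentrations were used to interpolate endpoints linearly. At the GI50, growth is halved. The concentration for full growth arrest is given as TGI.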

What was measured:
Assay in all cases: DTP human tumour cell line panel, 48 h
[1] = system: SNB-75 CNS
[2] = system: SK-OV-3 ovarian
[3] = system: A549 NSCLC
[4] = system: IGROV1 ovarian
[5] = system: OVCAR-5 ovarian
[6] = system: RPMI-8226 leukemia
[7] = system: A498 renal
[8] = system: HCT-116 colon
[9] = system: SNB-19 CNS
[10] = system: RXF 393 renal

`OCCCCC#Cc1ccccc1C#Cc1ccc(C(F)(F)F)cc1` was tested, and the GI50 [1] was 15.8 µM, the TGI [1] was 30.2 µM and the GI50 [2] was 18.5 µM. The TGI [2] was 34 µM, the GI50 [3] was 14.3 µM and the TGI [3] was 27.6 µM. The GI50 [4] was 17.6 µM, the TGI [4] was 32 µM and the GI50 [5] was 16.9 µM. The TGI [5] was 31.8 µM, the GI50 [6] was 19.9 µM and the TGI [6] was 48.8 µM. It also gave a GI50 [7] of 15 µM, a TGI [7] of 28.6 µM and a GI50 [8] of 16.9 µM. For the same compound, the TGI [8] was 35.8 µM, the GI50 [9] was 17.3 µM and the TGI [9] was 32.3 µM.
In the case of `Nc1ncnc2c1nc(Cl)n2C1OC(CO)C(O)C1O` (stereo not drawn), the TGI [1] is reported as over 56.6 µM, the TGI [2] is reported as over 100 µM and the TGI [3] is reported as over 100 µM. For the same compound, the TGI [4] was over 100 µM, the TGI [5] was 98.6 µM and the TGI [10] was 4.29 µM. The TGI [7] was over 100 µM, the TGI [8] was over 100 µM and the TGI [9] was over 100 µM.
With `[Cl-].[Gd+3].[O-]/N=C(\c1ccccc1)c1ccccn1.[O-]/N=C(\c1ccccc1)c1ccccn1.[O-]/N=C(\c1ccccc1)c1ccccn1` the GI50 [1] was 17.5 µM, the TGI [1] was 71.9 µM and the GI50 [2] was 48 µM. For the same compound, the TGI [2] was over 100 µM, the GI50 [3] was 55.2 µM and the TGI [3] was over 100 µM. For the same compound, the GI50 [4] was 81.4 µM, the TGI [4] was over 100 µM and the GI50 [5] was 67.7 µM. It also gave a TGI [5] of over 100 µM, a GI50 [6] of over 100 µM and a TGI [6] of over 100 µM. It also gave a GI50 [7] of over 100 µM, a TGI [7] of over 100 µM and a GI50 [8] of 49.3 µM. The TGI [8] was over 100 µM, the GI50 [9] was 93.2 µM and the TGI [9] was over 100 µM.
`OCC(O)C(O)C(O)C(O)c1nn[nH]n1` (stereo not drawn) was tested, and the TGI [1] was 88.1 µM and > 100 µM, the TGI [2] was over 100 µM and the TGI [3] was over 100 µM. For the same compound, the TGI [4] was over 100 µM, the TGI [5] was over 100 µM and the TGI [6] was over 100 µM. It also gave a TGI [8] of over 100 µM.
`COC(=O)[C@]1(C)CCC[C@]2(C)[C@@H]1CCC13C[C@@H](C=CO1)[C@@H](C)CC32O` (stereo partly drawn) was tested, and the GI50 [1] was 62.2 µM, the TGI [1] was over 100 µM and the GI50 [2] was over 100 µM. It also gave a TGI [2] of over 100 µM, a GI50 [3] of 33.1 µM and a TGI [3] of over 100 µM. The GI50 [4] was over 100 µM, the TGI [4] was over 100 µM and the GI50 [5] was over 100 µM. The TGI [5] was over 100 µM, the GI50 [10] was 66.8 µM and the TGI [10] was over 100 µM. The GI50 [6] was 7.84 µM, the TGI [6] was 82 µM and the GI50 [8] was 7.89 µM. It also gave a TGI [8] of over 100 µM, a GI50 [9] of over 100 µM and a TGI [9] of over 100 µM.
`c1cncc(C2ONC3=NCCN32)c1` (stereo not drawn) was tested, and the GI50 [1] was 22.4 µM, the TGI [1] was 98.1 µM and the GI50 [2] was 26.2 µM. It also gave a TGI [2] of over 100 µM, a GI50 [3] of 40.5 µM and a TGI [3] of over 100 µM. It also gave a GI50 [4] of 24 µM, a TGI [4] of over 100 µM and a GI50 [5] of 58.3 µM. The TGI [5] was over 100 µM, the GI50 [10] was 20.9 µM and the TGI [10] was 96.3 µM. The GI50 [7] was 16.6 µM, the TGI [7] was 40.2 µM and the GI50 [8] was 34.6 µM. The TGI [8] was over 100 µM, the GI50 [9] was 69.7 µM and the TGI [9] was over 100 µM.
Work on `O=C(/C=C(\[O-])c1ccccc1)CCCCCCC(=O)/C=C(\[O-])c1ccccc1.O=C(/C=C(\[O-])c1ccccc1)CCCCCCC(=O)/C=C(\[O-])c1ccccc1.O=C(/C=C(\[O-])c1ccccc1)CCCCCCC(=O)/C=C(\[O-])c1ccccc1.[Nd+3].[Nd+3]` yielded a GI50 [1] of 3.3 µM, a TGI [1] of over 50 µM and a GI50 [2] of over 50 µM. It also gave a TGI [2] of over 50 µM, a GI50 [3] of over 50 µM and a TGI [3] of over 50 µM. For the same compound, the GI50 [4] was over 50 µM, the TGI [4] was over 50 µM and the GI50 [5] was over 50 µM. For the same compound, the TGI [5] was over 50 µM, the GI50 [6] was 43.2 µM and the TGI [6] was over 50 µM. For the same compound, the GI50 [7] was over 50 µM, the TGI [7] was over 50 µM and the GI50 [8] was over 50 µM. For the same compound, the TGI [8] was over 50 µM, the GI50 [9] was over 50 µM and the TGI [9] was over 50 µM.
With `COc1ccc(-c2cc(-c3ccccc3)nc(NCCNc3ccnc4cc(Cl)ccc34)n2)cc1` the GI50 [1] was 1.6 µM, the TGI [1] was 3.05 µM and the GI50 [2] was 1.78 µM. It also gave a TGI [2] of 3.34 µM, a GI50 [3] of 1.82 µM and a TGI [3] of 3.55 µM. For the same compound, the GI50 [4] was 1.46 µM, the TGI [4] was 3.18 µM and the GI50 [5] was 1.76 µM. The TGI [5] was 3.3 µM, the GI50 [7] was 1.63 µM and the TGI [7] was 3.16 µM. The GI50 [9] was 1.77 µM and the TGI [9] was 3.68 µM.
In the case of `O=C(Nc1ccc(C(F)(F)F)cc1[N+](=O)[O-])c1cccnc1`, the TGI [1] is reported as over 100 µM, the TGI [2] is reported as over 100 µM and the TGI [3] is reported as over 100 µM. It also gave a TGI [4] of over 100 µM, a TGI [5] of over 100 µM and a TGI [6] of over 100 µM. For the same compound, the TGI [7] was over 100 µM, the TGI [8] was over 100 µM and the TGI [9] was over 100 µM.
Work on `CC(=O)[O-].[Mn+3].[O-]c1ccc(Cl)cc1C=NCCN=Cc1cc(Cl)ccc1[O-]` yielded a GI50 [1] of over 100 µM, a TGI [1] of over 100 µM and a GI50 [2] of over 100 µM. For the same compound, the TGI [2] was over 100 µM, the GI50 [3] was over 100 µM and the TGI [3] was over 100 µM. The GI50 [4] was 7.99 µM, the TGI [4] was 54.6 µM and the GI50 [7] was over 100 µM. For the same compound, the TGI [7] was over 100 µM, the GI50 [8] was over 100 µM and the TGI [8] was over 100 µM. It also gave a GI50 [9] of over 100 µM and a TGI [9] of over 100 µM.
`COc1ccc2c(c1)[n+](=O)c(C(C)=O)c(C)n2[O-]` was tested, and the TGI [2] was over 100 µM, the TGI [3] was over 100 µM and the TGI [4] was over 100 µM. It also gave a TGI [5] of over 100 µM, a TGI [10] of over 100 µM and a TGI [6] of over 100 µM. It also gave a TGI [8] of over 100 µM and a TGI [9] of over 100 µM.
With `NC(N)=N/N=C/c1c(-c2ccc(Cl)c([N+](=O)[O-])c2)nc2sc3ccccc3n12` the GI50 [3] was 1.61 µM, the TGI [3] was over 12.2 µM and the GI50 [4] was 11.8 µM. For the same compound, the TGI [4] was over 50 µM, the GI50 [5] was 0.773 µM and the TGI [5] was 1.44 µM. It also gave a GI50 [10] of 10.9 µM, a TGI [10] of 26.9 µM and a GI50 [7] of 3.9 µM. For the same compound, the TGI [7] was 11.2 µM, the GI50 [8] was 0.02 µM and the TGI [8] was 8.97 µM.
